Results as given in patent US20240287138A1, “CYCLIC PEPTIDES FOR INHIBITING TNF RECEPTOR 1 ACTIVITY” (Merck Sharp & Dohme LLC, priority 2023, published 2024).
Read-outs that look alike come from different tables or passages of the source. Numbered stars: 1 amine (or outer) side, 2 acyl side, 3 side chain; on linkers, the order of the positions; unused ones are H or OH. Square brackets hold non-standard residues; d marks the D form. Peptide text beside a SMILES is read from it. * marks the point of attachment. Trp(βS-Me,7-OMe) = COc1cccc2c([C@H](C)[C@H](N)C(=O)O)c[nH]c12; X44 = NC(=O)c1ccc([C@@H](O)[C@H](N[*:1])C(=O)[*:2])cc1; Phe(4-SO2NH2) = N[C@@H](Cc1ccc(S(N)(=O)=O)cc1)C(=O)O; dPro(trans-4-NMe2) = CN(C)[C@@H]1CN[C@@H](C(=O)O)C1; Ala(indazol-1-yl) = N[C@@H](Cn1ncc2ccccc21)C(=O)O; Trp(7-CN) = N#Cc1cccc2c(C[C@H](N)C(=O)O)c[nH]c12; Phe(4-CONH2) = NC(=O)c1ccc(C[C@H](N)C(=O)O)cc1; Phe(4-COOH) = N[C@@H](Cc1ccc(C(=O)O)cc1)C(=O)O; 4Pal(3S-Me) = C[C@@H](c1ccncc1)[C@H](N)C(=O)O; Trp(7-aza) = N[C@@H](Cc1c[nH]c2ncccc12)C(=O)O; Pip(5R-OH) = O=C(O)[C@@H]1CC[C@@H](O)CN1; X1 = O=C([C@@H]1CC[C@H](N[*:1])C1)[*:2]; Pip(4-aza) = O=C(O)[C@@H]1CNCCN1; 4Pal = N[C@@H](Cc1ccncc1)C(=O)O; dHyp = O=C(O)[C@H]1C[C@H](O)CN1; Aad = N[C@@H](CCCC(=O)O)C(=O)O; Ahp(2) = CCCCC[C@H](N)C(=O)O; αMeS = C[C@](N)(CO)C(=O)O; Carboxymethyl = O=C(O)C*; Nle = CCCC[C@H](N)C(=O)O; Sar = CNCC(=O)O

Key:
[1] = biological target: T1, human soluble TNFR1 (sTNFR1) (Homo sapiens, UniProt P19438); assay: Human sTNFR1-peptide displacement assay (LanthaScreen Eu TR-FRET binding assay)
T1 construct: made in house; host or cells: Sf21 (baculovirus)
T1 sequence (P19438 with tags, fused parts or gaps): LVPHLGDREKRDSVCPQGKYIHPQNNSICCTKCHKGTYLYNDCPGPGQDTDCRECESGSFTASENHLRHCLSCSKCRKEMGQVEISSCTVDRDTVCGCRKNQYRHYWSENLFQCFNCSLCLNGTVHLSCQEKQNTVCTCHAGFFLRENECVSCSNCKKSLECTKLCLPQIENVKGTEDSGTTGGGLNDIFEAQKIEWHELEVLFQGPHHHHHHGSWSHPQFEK
Procedure, shortened: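 Readout is the 665/615 nm TR-FRET ratio (Eu anti-His donor, streptavidin-Alexa647 acceptor), normalized to DMSO and saturating displacer, fit by Morrison-based five-parameter logistic for Kd^app. His-tagged sTNFR1 (1-211) prebound to 100 nM biotinylated peptide SEQ ID NO.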

[2] = biological target: T2, TNFα-induced NF-κB signal transduction pathway (TNFR1 signaling) in THP-1 cells (Homo sapiens, UniProt P19438); assay: THP-1 Lucia NF-κB reporter cell assay, inhibition of TNFα-induced NF-κB signaling; type: cell-based; conditions: THP-1 NF-κB Lucia reporter cells, 10 ng/mL TNFα, 16-18 h, secreted luciferase, read-out: THP-1 IC50
T2 sequence (P19438 30-455): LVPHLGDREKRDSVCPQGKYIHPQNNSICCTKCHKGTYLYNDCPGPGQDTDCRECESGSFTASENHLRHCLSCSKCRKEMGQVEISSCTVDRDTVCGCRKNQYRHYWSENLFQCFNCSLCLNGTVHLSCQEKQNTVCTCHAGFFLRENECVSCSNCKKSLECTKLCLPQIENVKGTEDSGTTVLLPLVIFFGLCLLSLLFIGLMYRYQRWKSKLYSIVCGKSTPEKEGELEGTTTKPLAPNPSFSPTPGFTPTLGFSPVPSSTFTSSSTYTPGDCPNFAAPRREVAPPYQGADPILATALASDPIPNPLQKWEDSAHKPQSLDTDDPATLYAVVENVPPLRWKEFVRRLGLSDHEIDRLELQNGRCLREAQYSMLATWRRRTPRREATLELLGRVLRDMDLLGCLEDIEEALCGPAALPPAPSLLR
Procedure, shortened: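 Read-out: secreted Lucia luciferase luminescence (QUANTI-Luc) from supernatant after 16-18 h, 37 °C, 10 ng/mL rhTNFα. Peptide pretreatment 1 h at 37 °C; 20,000 cells/well, selection antibiotics omitted. IC50 via 4-parameter logistic model against min/max controls.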

Question: `CCCCC[C@@H]1NC(=O)[C@@H]2CC[C@@H](C2)NC(=O)[C@H]([C@@H](C)c2c[nH]c3c(OC)cccc23)NC(=O)CN(C)C(=O)[C@H](Cc2ccc(C(N)=O)cc2)NC(=O)[C@H](Cc2ccc(C(N)=O)cc2)NC(=O)[C@](C)(CO)NC(=O)[C@H](Cc2c[nH]c3c(C#N)cccc23)NC(=O)[C@H](Cc2ccc(C(=O)O)cc2)NC(=O)[C@H](CC(N)=O)NC(=O)[C@H]2C[C@H](O)CN2C(=O)[C@H](Cc2c[nH]c3ccccc23)NC(=O)[C@H](CCCC(=O)O)NC(=O)[C@H]([C@@H](C)c2ccncc2)NC1=O` [SEQ ID NO. 282] (cyclo([Aad]W[dHyp]N[Phe(4-COOH)][Trp(7-CN)][αMeS][Phe(4-CONH2)][Phe(4-CONH2)][Sar][Trp(βS-Me,7-OMe)][X1][Ahp(2)][4Pal(3S-Me)])) was tested. Which Kd [1] did it give?
Answer: 0.13 nM

Question: What about the IC50 [2] of the same compound?
Answer: 0.9 nM

Question: For `CCCC[C@@H]1NC(=O)[C@@H]2CC[C@@H](C2)NC(=O)[C@H]([C@@H](C)c2c[nH]c3c(OC)cccc23)NC(=O)CN(C)C(=O)[C@H](Cc2ccc(C(=O)O)cc2)NC(=O)[C@H](Cc2ccc(C(N)=O)cc2)NC(=O)[C@](C)(CO)NC(=O)[C@H](Cc2c[nH]c3c(C#N)cccc23)NC(=O)[C@H](Cc2ccc(C(=O)O)cc2)NC(=O)[C@H](CC(N)=O)NC(=O)[C@H]2C[C@H](OCC(=O)O)CN2C(=O)[C@H](Cc2c[nH]c3ncccc23)NC(=O)[C@@H]2CC[C@@H](O)CN2C(=O)[C@H](Cc2ccncc2)NC1=O` [SEQ ID NO. 284] (cyclo([4Pal][Pip(5R-OH)][Trp(7-aza)][dHyp](Carboxymethyl)N[Phe(4-COOH)][Trp(7-CN)][αMeS][Phe(4-CONH2)][Phe(4-COOH)][Sar][Trp(βS-Me,7-OMe)][X1][Nle])), which Kd [1] is on record?
Answer: 0.09 nM

Question: What about the IC50 ([2]; listed as 284) of the same compound?
Answer: 0.8 nM

Question: `CCCC[C@@H]1NC(=O)[C@@H]2CC[C@@H](C2)NC(=O)[C@H]([C@@H](C)c2c[nH]c3c(OC)cccc23)NC(=O)CN(C)C(=O)[C@H](Cc2ccc(OCC(=O)O)cc2)NC(=O)[C@H](Cc2ccc(C(N)=O)cc2)NC(=O)[C@](C)(CO)NC(=O)[C@H](Cc2c[nH]c3c(C#N)cccc23)NC(=O)[C@H](Cc2ccc(OCC(=O)O)cc2)NC(=O)[C@H](CC(N)=O)NC(=O)[C@H]2C[C@H](O)CN2C(=O)[C@H](Cc2c[nH]c3ccccc23)NC(=O)[C@@H]2CC[C@@H](O)CN2C(=O)[C@H](Cc2ccncc2)NC1=O` [SEQ ID NO. 285] (cyclo([4Pal][Pip(5R-OH)]W[dHyp]NY(Carboxymethyl)[Trp(7-CN)][αMeS][Phe(4-CONH2)]Y(Carboxymethyl)[Sar][Trp(βS-Me,7-OMe)][X1][Nle])) was tested. Which Kd [1] did it give?
Answer: 0.04 nM

Question: And the IC50 [2]?
Answer: 0.6 nM

Question: What does the source list for `CCCC[C@@H]1NC(=O)[C@@H]2CC[C@@H](C2)NC(=O)[C@H]([C@@H](C)c2c[nH]c3c(OC)cccc23)NC(=O)CN(C)C(=O)[C@H](Cc2ccc(OCC(=O)O)cc2)NC(=O)[C@H](Cc2ccc(S(N)(=O)=O)cc2)NC(=O)[C@](C)(CO)NC(=O)[C@H](Cc2c[nH]c3c(C#N)cccc23)NC(=O)[C@H](Cc2ccc(OCC(=O)O)cc2)NC(=O)[C@H](CC(N)=O)NC(=O)[C@H]2C[C@H](O)CN2C(=O)[C@H](Cn2ncc3ccccc32)NC(=O)[C@@H]2CC[C@@H](O)CN2C(=O)[C@H](Cc2ccncc2)NC1=O` [SEQ ID NO. 286] (cyclo([4Pal][Pip(5R-OH)][Ala(indazol-1-yl)][dHyp]NY(Carboxymethyl)[Trp(7-CN)][αMeS][Phe(4-SO2NH2)]Y(Carboxymethyl)[Sar][Trp(βS-Me,7-OMe)][X1][Nle]))?
Answer: Kd [1]: 0.05 nM; IC50 [2]: 0.4 nM

Question: Which results are given for `CCCC[C@@H]1NC(=O)[C@@H]2CC[C@@H](C2)NC(=O)[C@H]([C@@H](C)c2c[nH]c3c(OC)cccc23)NC(=O)CN(C)C(=O)[C@H]([C@H](O)c2ccc(C(N)=O)cc2)NC(=O)[C@H](Cc2ccc(C(=O)O)cc2)NC(=O)[C@](C)(CO)NC(=O)[C@H](Cc2c[nH]c3c(C#N)cccc23)NC(=O)[C@H](Cc2ccc(C(=O)O)cc2)NC(=O)[C@H](CC(N)=O)NC(=O)[C@H]2C[C@H](N(C)C)CN2C(=O)[C@H](Cc2c[nH]c3ncccc23)NC(=O)[C@@H]2CNCCN2C(=O)[C@H](Cc2ccncc2)NC1=O` [SEQ ID NO. 287] (cyclo([4Pal][Pip(4-aza)][Trp(7-aza)][dPro(trans-4-NMe2)]N[Phe(4-COOH)][Trp(7-CN)][αMeS][Phe(4-COOH)][X44][Sar][Trp(βS-Me,7-OMe)][X1][Nle]))?
Answer: Kd [1]: 0.22 nM; IC50 [2]: 1.7 nM
